From ChEMBL document CHEMBL2073797, “Characterization of an organic anion-transporting polypeptide (OATP-B) in human placenta” (J Clin Endocrinol Metab, 2002)
Where a name gives a salt, the structure may show the parent alone.

Target: T1, Solute carrier organic anion transporter family member 2B1 (OATP2B1) (Homo sapiens, UniProt O94956)
T1 sequence (O94956 whole entry): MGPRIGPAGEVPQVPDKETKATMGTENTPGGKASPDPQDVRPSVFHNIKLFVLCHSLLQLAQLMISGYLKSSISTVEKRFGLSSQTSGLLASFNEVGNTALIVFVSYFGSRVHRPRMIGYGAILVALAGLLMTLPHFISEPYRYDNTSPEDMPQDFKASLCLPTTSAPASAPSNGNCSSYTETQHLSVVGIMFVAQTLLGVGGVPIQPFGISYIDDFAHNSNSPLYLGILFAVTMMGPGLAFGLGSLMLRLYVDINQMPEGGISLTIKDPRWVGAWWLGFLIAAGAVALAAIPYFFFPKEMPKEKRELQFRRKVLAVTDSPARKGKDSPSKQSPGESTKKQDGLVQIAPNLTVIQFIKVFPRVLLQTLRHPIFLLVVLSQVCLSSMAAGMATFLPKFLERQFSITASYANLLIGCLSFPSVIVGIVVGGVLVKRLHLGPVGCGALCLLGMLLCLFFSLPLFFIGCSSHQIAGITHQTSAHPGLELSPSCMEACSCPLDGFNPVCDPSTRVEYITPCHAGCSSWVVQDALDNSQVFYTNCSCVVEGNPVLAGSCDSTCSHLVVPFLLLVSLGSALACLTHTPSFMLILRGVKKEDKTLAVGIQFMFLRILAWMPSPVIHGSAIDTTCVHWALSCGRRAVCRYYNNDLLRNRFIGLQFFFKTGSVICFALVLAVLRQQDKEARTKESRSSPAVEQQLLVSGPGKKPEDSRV
Assay: TP_TRANSPORTER: inhibition of Estrone-3-sulfate uptake (Estrone-3-sulfate: 1 uM, Pregnenolone sulfate: 100 uM) in Xenopus laevis oocytes
Format: functional, cell-based, Oocyte
Conditions: Xenopus laevis oocytes expressing OATP2B1 (SLCO2B1), probe Estrone-3-sulfate (1 uM)

SMILES: CC(=O)[C@H]1CC[C@H]2[C@@H]3CC=C4C[C@@H](OS(=O)(=O)O)CC[C@]4(C)[C@H]3CC[C@]12C [PREGNENOLONE SULFATE]
- inhibition at 100 µM: 83%
